The IC50 is the concentration needed to halve the response being measured.

Active and inactive are the calls of the source.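 How the source made its calls: active means maximal inhibition of USP17 at or above 30% in the confirmation dose-response, a value not among the printed readouts; inactive means the rest.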 Some results are limits rather than exact numbers.

The target of this assay is Ubiquitin carboxyl-terminal hydrolase 17-like protein 5 (Homo sapiens) (UniProt A8MUK1). As to the kind of experiment: ubiquitin-specific protease 17 inhibitors, concentration series, biochemical, verification of primary actives (AID 1645864). As to conditions: purified USP17, ubiquitin-rhodamine cleavage fluorescence, 3 h.
Chain of Ubiquitin carboxyl-terminal hydrolase 17-like protein 5 (Homo sapiens) (A8MUK1 whole entry, looked up): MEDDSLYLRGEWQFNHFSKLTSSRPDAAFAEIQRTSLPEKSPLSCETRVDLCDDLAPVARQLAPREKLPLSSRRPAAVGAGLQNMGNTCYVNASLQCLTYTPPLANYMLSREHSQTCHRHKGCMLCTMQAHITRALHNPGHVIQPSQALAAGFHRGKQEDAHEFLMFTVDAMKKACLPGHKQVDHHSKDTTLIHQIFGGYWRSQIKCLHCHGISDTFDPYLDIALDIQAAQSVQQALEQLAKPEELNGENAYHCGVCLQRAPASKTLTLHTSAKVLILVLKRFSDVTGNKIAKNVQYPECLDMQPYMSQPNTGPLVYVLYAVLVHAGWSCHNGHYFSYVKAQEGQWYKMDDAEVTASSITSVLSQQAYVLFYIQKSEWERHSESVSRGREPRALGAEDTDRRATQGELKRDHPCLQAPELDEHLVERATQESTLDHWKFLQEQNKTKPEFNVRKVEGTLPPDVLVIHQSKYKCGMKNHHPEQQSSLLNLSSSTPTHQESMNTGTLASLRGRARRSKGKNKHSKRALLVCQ
Take `CN1c2ccccc2CN(CC(N)=O)CC1Cc1ccccc1` (centres undefined): the IC50 was > 50 µM (inactive).

Consider `CN(CCCNC(=O)c1cccc2c1SCCC2=O)c1ccccc1`, for which the IC50 was > 50 µM (inactive).

In the case of `CCN1C(=O)c2cccnc2Sc2cc(NC(=O)c3ccc(Cl)s3)ccc21`, the IC50 was > 50 µM (inactive). In the case of `COc1cccc2cccc(O)c12`, the IC50 is > 50 µM (inactive). For `COc1ccc(Nc2nc(C(=O)NCc3ccc4c(c3)OCO4)cc3occc23)cc1`, the IC50 is 10.7 µM. Then `CC(=O)O[C@H]1[C@]2(O)C[C@]34SS[C@](CO)(C(=O)N3[C@@H]2C[C@@]12O[C@@H](C)C(C)(C)C2=O)N(C)C4=O`, with > 50 µM (inactive). Then `CCOC(=O)N1CCN(S(=O)(=O)c2ccc(C(=O)Nc3ccc(Br)cc3)cc2)CC1`, with 1.78 µM; and `O=C(Nc1cccc(OC(=O)c2ccc(Cl)cc2)c1)c1ccc(Cl)cc1`, with 16.8 µM. Next, `CN(C)CCc1cc2c(c3c1ccc1ccccc13)OCO2`: > 50 µM (inactive); `COc1cc2c(c(OCC(=O)Nc3ccc4c(c3)OCCO4)c1)C(=O)O[C@@H](C)CCCC(=O)CCCCC2`: 23.1 µM; `O=c1ccc(-c2noc(Cc3c(F)cccc3Cl)n2)c[nH]1`: > 50 µM (inactive). As to `COc1cccc(CN2CCc3nc4nc(C)ccc4cc3C2)c1`, the IC50 is > 50 µM (inactive). Next, `COc1ccc(C(=O)CCN2CCOCC2)cc1[N+](=O)[O-]`: > 50 µM (inactive); `COc1ccc(OC)c(-c2cn3ccn(-c4ccc5c(c4)CCC5)c(=O)c3n2)c1`: > 50 µM (inactive); `Cc1cccc(NC(=O)CN2C(=O)COc3cc(S(=O)(=O)N4CCCC4)ccc32)c1C`: 26.4 µM. Then `CCOc1ccc2[nH]c(=O)c(CN(C(=O)c3cccs3)C3CCCC3)cc2c1`, with 11.1 µM.

Take `COc1cccc(NC(=O)C2CCC(CNS(=O)(=O)c3ccc4c(c3)C(C)(C)C(=O)N4C)CC2)c1` (centres undefined): the IC50 was > 50 µM (inactive). Then `CC(=O)N1CCc2cc(S(=O)(=O)NCc3ccc(C)cc3)ccc21`, with > 50 µM (inactive); and `NS(=O)(=O)c1cccc(NS(=O)(=O)c2ccc(/C=C/C(=O)OCC(=O)c3ccc(Br)cc3)cc2)c1`, with > 50 µM (inactive).

As to `CCc1cc2c(=O)[nH]c(Cc3ccc(OC)cc3)nc2s1`, the IC50 was 22.5 µM. Consider `CC(=O)c1sc(NC(=O)c2ccccc2-c2ccc(C(F)(F)F)cc2)nc1C`, for which the half-maximal inhibitory concentration (IC50) was 17 µM.

`O=C(CSc1ccc(-c2cccc([N+](=O)[O-])c2)nn1)Nc1cccc(F)c1`: the IC50 was 2.7 µM. Then `COC(=O)c1ccc(Cn2cnc3ccc(F)cc3c2=O)o1`, with > 50 µM (inactive). Next, `CCOc1ccc(NC(=O)Cn2c(=O)n(CC(=O)NCc3ccc(C)cc3)c(=O)c3sccc32)cc1`: 3.97 µM. Next, `C=C1CCC2[C@](C)(CCC[C@]2(C)C(=O)OC)[C@H]1CCc1ccoc1/C=C/C(=O)O` (some centres undefined): 32.5 µM; `CCCn1cc(C(=O)N2CCC3(CC2)CC2(CO3)Nc3ccccc3-n3cccc32)c(C)n1` (centres undefined): 27.6 µM; `COc1cc(=O)c(C(=O)Nc2ccc(C#N)cc2)nn1-c1cccc(F)c1`: 28.8 µM.

For the compound `Cc1ccc(Cl)c(-n2nnc(C(=O)Nc3ccccc3C#N)c2C)c1`, the half-maximal inhibitory concentration (IC50) was 4.85 µM. Then `Cc1cc(Cl)ccc1Nc1nc(Nc2cccc(F)c2)nc2nccnc12`, with > 50 µM (inactive).

Consider `COC1C(O)=C2C(=O)O/C(C)=C/C=C/C=C/C=C/CC(c3ccccc3)NC(=O)/C=C/C=C/C=C\C=C\C2(C)C1O` (centres undefined), for which the IC50 is > 50 µM (inactive). `O=C(COc1ccc(S(=O)(=O)N2CCOCC2)cc1)N1CCC(Cc2ccccc2)CC1`: the IC50 is > 50 µM (inactive). Then `NS(=O)(=O)c1ccc(Cl)c(C(=O)OCc2csc(Nc3ccccc3)n2)c1`, with > 50 µM (inactive). Then `COc1ccccc1CNC(=O)c1ccccc1OCc1ccccc1Cl`, with > 50 µM (inactive); and `COc1ccc(-c2cc(-c3nnc(CSc4nc5ccccc5n4C)o3)c3ccccc3n2)cc1OC`, with > 50 µM (inactive); and `Cc1ccc(NC2=NC(c3ccco3)n3c(nc(C)cc3=O)N2)c(C)c1` (centres undefined), with 4.62 µM. Next, `O=C(NCc1cccnc1)C1CCN(c2cnc(N3CCCCCC3)nc2)CC1`: > 50 µM (inactive); `COc1cc(NC(=O)Cn2nc(-c3ccc(F)cc3)ccc2=O)ccc1-n1cnnn1`: 1.9 µM; `Cc1cn[nH]c1C1COCCN1C(=O)c1ccc2ncccc2c1` (centres undefined): > 50 µM (inactive). For `O=C(CCCn1c(=O)[nH]c2cc(Cl)ccc2c1=O)N1CCc2ccccc2C1`, the IC50 is 21.5 µM. Consider `CCOc1ccc(-c2nc(C#N)c(N3CCN(C(=O)c4ccccc4C)CC3)o2)cc1`, for which the concentration for half-maximal inhibition (IC50) is 3.3 µM. Then `Cc1ccc2c(c1)c(=O)c(C(=O)c1ccccc1)cn2CC(=O)Nc1ccccc1`, with 9.87 µM. Turning to `c1ccc2c(-c3nc(C4CC4)no3)nnc(NCc3ccncc3)c2c1`, the IC50 is 38.7 µM. Take `O=C(COC(=O)c1cc(Cl)ccc1O)Nc1ccc2c(c1)OCCO2`: the concentration for half-maximal inhibition (IC50) is 29.2 µM.

Consider `CCCCCn1c(Sc2ccc(C)cc2)nc2c1c(=O)[nH]c(=O)n2C`, for which the IC50 was 16.3 µM. Then `Fc1ccccc1N1CCN(c2ncc3c(n2)CCN(Cc2ccccn2)C3)CC1`, with 43 µM; and `O=c1c(-c2nc(C3CC3)no2)cccn1Cc1c(F)cccc1Cl`, with > 50 µM (inactive). For the compound `COc1ccc(NC(=O)C2CCCN(S(=O)(=O)N3CCCCCC3)C2)cc1` (centres undefined), the IC50 was 29.7 µM.

As to `Clc1cncc(Oc2nc(-c3cccnc3)nc3ccccc23)c1`, the half-maximal inhibitory concentration (IC50) is 3.31 µM. For `Cc1ccc(-c2ncc(C(=O)NCc3cccc(C)c3)c(-c3ccncc3)n2)cc1`, the IC50 is > 50 µM (inactive).

As to `COc1ccc(CCNC(=O)CSc2cn(CCNC(=O)c3ccc(F)cc3)c3ccccc23)cc1OC`, the 50% inhibitory concentration (IC50) was 31.3 µM. Next, `Cc1nc2cccnc2n1C1CCN(C(=O)c2cc3cc(Cl)ccc3[nH]2)C1` (centres undefined): > 50 µM (inactive); `O=C(OCc1ccc(Br)cc1)c1ccc2ccccc2n1`: > 50 µM (inactive); `O=C(Nc1ccccc1)c1nc2c(s1)CCN(C(=O)c1ccccc1)CC2`: > 50 µM (inactive). Turning to `COc1ccc2nc(-c3ccc(NC(=O)c4cccc(OC)c4OC)cc3)cn2n1`, the 50% inhibitory concentration (IC50) is 2.13 µM. On to `Cc1ccc(C(=O)Nc2nc3n(n2)C(c2ccccc2)CC(=O)N3)cc1` (centres undefined), for which the IC50 is 27.9 µM. Then `CN1CCN(C(=O)c2cc(-c3ccn(CC4CC4)n3)n3ccccc23)CC1`, with > 50 µM (inactive); and `O=C(Cn1cc(C(=O)C2CC2)c2ccccc21)NCc1ccc2c(c1)OCO2`, with 29.1 µM. Next, `O=C(Cn1cc(C(=O)C(F)(F)F)c2ccccc21)N1CCc2ccccc21`: 3.5 µM; `Cc1noc(-c2cc(=O)n(CC(=O)NCc3ccccc3F)c3ccccc23)n1`: 4.88 µM. For `Cc1ccn(-c2ccc(NC(=O)c3ccccc3Sc3ccccc3C#N)cc2)n1`, the concentration for half-maximal inhibition (IC50) was 44.7 µM. Then `CCn1c(=O)c(=O)[nH]c2cc(C(=O)Nc3cccc(-c4csc(C)n4)c3)ccc21`, with 26.9 µM.

For the compound `Cc1nn(CC(=O)Nc2ccc(Br)c3cccnc23)c(=O)c2ccccc12`, the half-inhibitory concentration (IC50) is 12.7 µM. Then `O=C(Nc1ccc(N2CCOCC2)cc1)c1ccc(-c2ccc(N3CCCC3)nn2)cc1`, with > 50 µM (inactive). `CC1=C(c2ccc(Cl)cc2)S(=O)(=O)NC1=NCC(=O)Nc1ccc(F)cc1`: the IC50 was 20.3 µM. `O=C1c2c(O)c(Cl)cc3c2[C@@]2(Oc4cc(Cl)c(O)c5c4[C@]3(O2)[C@@H]2O[C@@H]2C5=O)[C@@H]2O[C@H]12`: the IC50 was 0.411 µM.

With `O=C(CSc1nnc(Cn2cnc3ccccc32)o1)Nc1ccc([N+](=O)[O-])cc1`, the half-inhibitory concentration (IC50) is 21.1 µM. Take `COc1ccc(OC)c(NC(=O)c2cc(Cl)ccc2OC)c1`: the IC50 was 2.53 µM. Then `Cc1cc(-c2ccnc3c(C#N)cnn23)c(C)s1`, with 28.6 µM. As for `O=C(CSc1nnc(-c2ccncc2)n1Cc1ccccc1)c1ccc2[nH]c(O)cc2c1`, the IC50 was 4.12 µM. Then `Cc1cc2nc(/C=C/c3ccccc3)n(Cc3cccc(F)c3)c2cc1C`, with > 50 µM (inactive).

For the compound `Cc1cccc(NC(=O)c2ccn(COc3ccc(F)cc3F)n2)c1C`, the IC50 is > 50 µM (inactive). Consider `COc1ccc(-c2cc3c(=O)n(CC(=O)NCCCN4CCCC4)ncn3n2)cc1`, for which the 50% inhibitory concentration (IC50) is 29.2 µM.

As to `N#Cc1cc2c(nc1SCC(=O)NCc1ccccc1)CCCC2`, the IC50 was > 50 µM (inactive). Then `COC(=O)c1cc(C)sc1NC(=O)c1cccc(OC)c1OC`, with > 50 µM (inactive); and `O=C(Nc1ccc2sccc2c1)c1ccc(F)cc1`, with 40.6 µM.

Turning to `COc1cc(OC)cc(C(=O)Nc2cnc(-c3ccccc3)nc2)c1`, the IC50 is > 50 µM (inactive). For `O=C(Nc1cccc(F)c1)c1ncoc1-c1ccco1`, the IC50 was > 50 µM (inactive). As to `CCOc1ccc2cc3c(nc2c1)OC(=O)N(Cc1ccc(C)o1)C3`, the half-inhibitory concentration (IC50) was 2.44 µM.

With `COCCNC(=O)c1ccc(-c2ccc(N3CCCCC3)nc2)cc1`, the IC50 was 26.8 µM. Next, `Cc1nc2ccc(NC(=O)COc3ccccc3[N+](=O)[O-])cc2s1`: 3.26 µM; `O=C(Nc1ccccc1Sc1ncc(-c2ccc(Cl)cc2)cn1)c1ccco1`: 5.78 µM. With `O=C(Cn1c(=O)n(Cc2ccccc2)c(=O)c2ncccc21)NCc1ccccc1Cl`, the IC50 was 37.9 µM. Then `COc1ccc(C(=O)Nc2nc(-c3ccc4c(c3)NC(=O)CO4)c(C)s2)cc1OC`, with 1.23 µM; and `CCc1nc2cc(NC(=O)c3cccc(N4CCCC4=O)c3)ccc2n1C`, with > 50 µM (inactive). Next, `Cc1ccc(OC(=O)c2cn(-c3ccccc3)nc2-c2cccnc2)cc1`: > 50 µM (inactive).

As to `Nc1ccccc1SCc1noc(-c2cccs2)n1`, the IC50 is > 50 µM (inactive). Next, `Cc1c(CC(=O)N2CCN(c3ncccn3)CC2)c(=O)oc2cc(O)ccc12`: 24.7 µM; `Cc1cc(C(F)(F)F)n(-c2ccc(NC(=O)Nc3cccc(C(F)(F)F)c3)cc2)n1`: 15.4 µM; `Cc1cc(C(=O)N2CCOCC2)c(C)n1-c1ccc(O)cc1`: 23.9 µM.

For the origin of these results see PubChem BioAssay AID1645864 (Buhrlage Lab, Dana-Farber Cancer Institute and Novartis …, 2021).
